What was measured:
human orexin 1 receptor = molecular target: T1, human orexin 1 receptor (Homo sapiens, UniProt O43613); test: Calcium accumulation in cells (FLIPR), antagonism of orexin A, human orexin 1 receptor; type: cell-based; settings: for inhibition at 10 µM: measured at a concentration of 10 μM of compound, read-out: FLIPR hOx1R % inhibition; for Ki: calcium accumulation, antagonism of orexin A, Cheng-Prusoff corrected, read-out: FLIPR hOx1R Ki
T1 construct: expressed in transfected cells
T1 sequence (O43613 1-425): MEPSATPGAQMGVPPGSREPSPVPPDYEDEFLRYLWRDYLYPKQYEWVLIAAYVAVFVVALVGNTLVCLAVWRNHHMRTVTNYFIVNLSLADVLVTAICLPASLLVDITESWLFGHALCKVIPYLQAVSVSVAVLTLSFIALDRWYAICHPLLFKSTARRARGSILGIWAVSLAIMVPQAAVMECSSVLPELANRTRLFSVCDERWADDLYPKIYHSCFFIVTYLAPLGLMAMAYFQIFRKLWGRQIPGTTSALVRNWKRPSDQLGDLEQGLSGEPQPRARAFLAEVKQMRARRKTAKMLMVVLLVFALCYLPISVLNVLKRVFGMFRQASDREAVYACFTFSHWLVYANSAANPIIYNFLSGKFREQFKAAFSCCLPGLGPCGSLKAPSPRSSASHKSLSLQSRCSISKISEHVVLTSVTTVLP
Experimental: (§1) Calcium Accumulation in Cells (FLIPR):
(§2) Cells expressing human orexin 1 or human orexin 2 receptors, were seeded at 8,000 cells/well in 384 well black-walled clear bottom, poly-D-lysine coated plates. After 24 h, the medium was removed and cells were washed once with phosphate buffered saline and serum-deprived overnight in assay buffer (130 mM NaCl, 5.4 mM KCl, 1.8 mM CaCl2, 0.8 mM MgSO4, 0.9 mM NaH2PO4, 25 mM glucose, 20 mM HEPES, pH 7.4) containing bovine serum albumin (1% w/v).
(§3) On the day of the experiment, the cells seeded in black plates were treated with assay buffer containing the Ca^2+ sensitive fluorescent dye Fluo-4-AM (2 μM), and probenecid (0.1 mM). After 1 h plates were washed twice with, and resuspended in, assay buffer containing probenecid (0.1 mM) using a multi plate washer. The plates were placed into a FLIPR II (Fluorometric Imaging Plate Reader, Molecular Devices, Sunnyvale, Calif., USA) and baseline fluorescence (fluorescence light units, FLU) was measured (5 measurements, 2 S each; laser excitation 488 nm at 0.6-1 W, CCD camera exposure 0.4 s) before addition of buffer alone (basal) or containing test compounds (either compound of formula I alone, agonist alone or agonist in the presence of various concentrations of compounds of formula I). Fluorescence measurements were then continued every 1 S for 120 S followed by every 4 S for 240 S.
(§4) The measurements were typically made in two sequences:
(§5) Compounds of formula I were tested usually in a concentration range from 10^−9 M to 10^−5 M.
(§6) In the second round, performed one hour later (to allow for equilibration), Orexin A was tested either in the absence (calibration curves, Orexin A agonist controls) or in the presence of compounds of formula Ito determine antagonism.
(§7) Inhibition data is expressed in Table 1 as Kd [μM], converted by the Cheng and Prusoff correction (Kd=IC50/1+(L/EC50)), where IC50 is the 50% inhibition value determined in concentration response inhibition curves, EC50 is the half maximal activation concentration determined for orexin A in concentration response curves and L is the concentration of orexin A used in inhibition experiments performed in with a submaximal concentration of orexin A in the presence of up to 8 increasing concentrations of compound of formula I. Inhibition data is also expressed in Table 1 as % inhibition value measured at a concentration of 10 μM of selected compounds of formula I.

human orexin 2 receptor = molecular target: T2, human orexin 2 receptor (Homo sapiens, UniProt O43614); test: Calcium accumulation in cells (FLIPR), antagonism of orexin A, human orexin 2 receptor; type: cell-based; settings: for Ki: calcium accumulation, antagonism of orexin A, Cheng-Prusoff corrected, read-out: FLIPR hOx2R Ki
T2 construct: expressed in transfected cells
T2 sequence (O43614 1-444): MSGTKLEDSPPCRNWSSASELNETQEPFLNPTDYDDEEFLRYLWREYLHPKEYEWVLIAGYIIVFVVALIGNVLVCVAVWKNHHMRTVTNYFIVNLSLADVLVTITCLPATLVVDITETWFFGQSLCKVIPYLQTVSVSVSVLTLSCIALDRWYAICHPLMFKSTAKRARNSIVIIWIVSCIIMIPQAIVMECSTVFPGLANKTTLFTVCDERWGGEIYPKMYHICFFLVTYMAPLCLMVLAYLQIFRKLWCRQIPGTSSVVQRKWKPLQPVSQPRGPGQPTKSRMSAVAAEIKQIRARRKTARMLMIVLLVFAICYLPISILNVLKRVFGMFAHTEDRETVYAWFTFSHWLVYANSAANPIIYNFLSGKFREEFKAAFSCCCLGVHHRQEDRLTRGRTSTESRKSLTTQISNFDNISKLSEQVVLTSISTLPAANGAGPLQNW
Experimental: as §1, §2, §3, §4, §5, §6, §7

Compound | inhibition at 10 µM (human orexin 1 receptor) [%] | Ki (human orexin 2 receptor) [nM] | inhibition at 10 µM (human orexin 2 receptor; measured at a concentration of 10 μM of compound, read-out: FLIPR hOx2R % inhibition) [%] | Ki (human orexin 1 receptor) [nM]
Cc1cc(C)nc(N2CCC3(CC2)OCCN(Cc2nn(C)nc2-c2ccccc2)C3=O)n1 [Example 2.12, 9-(4,6-Dimethylpyrimidin-2-yl)-4-((2-methyl-5-phenyl-2H-1,2,3-triazol-4-yl)methyl)-1-oxa-4,9-diazaspiro[5.5]undecan-5-one] | 16 | 364 |  | 
Cc1cc(C)nc(N2CCC3(CC2)OCCN(Cc2c(-c4ccccc4)nnn2C)C3=O)n1 [Example 2.15, 9-(4,6-Dimethylpyrimidin-2-yl)-4-((1-methyl-4-phenyl-1H-1,2,3-triazol-5-yl)methyl)-1-oxa-4,9-diazaspiro[5.5]undecan-5-one] | 10 | 2160 |  | 
Cc1cc(C)nc(N2CCC3(CC2)OCCN(Cc2nnn(C)c2-c2ccccc2)C3=O)n1 [Example 2.16, 9-(4,6-Dimethylpyrimidin-2-yl)-4-((1-methyl-5-phenyl-1H-1,2,3-triazol-4-yl)methyl)-1-oxa-4,9-diazaspiro[5.5]undecan-5-one] | 16 |  | 27 | 
CCc1ccnc(N2CCC3(CC2)OCCN(Cc2c[nH]c4ccccc24)C3=O)n1 [Example 2.22, 4-((1H-indol-3-yl)methyl)-9-(4-ethylpyrimidin-2-yl)-1-oxa-4,9-diazaspiro[5.5]undecan-5-one] |  | 251 |  | 2780
Cc1cnc(N2CCC3(CC2)OCCN(Cc2c[nH]c4ccccc24)C3=O)nc1C [Example 2.24, 4-((1H-indol-3-yl)methyl)-9-(4,5-dimethylpyrimidin-2-yl)-1-oxa-4,9-diazaspiro[5.5]undecan-5-one] |  | 182 |  | 1650
Cc1cc(C)nc(N2CCC3(CC2)OCCN(Cc2nocc2-c2ccccc2)C3=O)n1 [Example 2.25, 9-(4,6-dimethylpyrimidin-2-yl)-4-((4-phenylisoxazol-3-yl)methyl)-1-oxa-4,9-diazaspiro[5.5]undecan-5-one] |  | 374 |  | 2680
Cc1cc(C)nc(N2CCC3(CC2)OCCN(Cc2conc2-c2ccccc2)C3=O)n1 [Example 2.26, 9-(4,6-dimethylpyrimidin-2-yl)-4-((3-phenylisoxazol-4-yl)methyl)-1-oxa-4,9-diazaspiro[5.5]undecan-5-one] |  | 148 |  | 1180
N#Cc1ccnc(N2CCC3(CCN(Cc4c[nH]c5ccccc45)C3=O)CC2)c1 [Example 3.3, 2-(2-((1H-Indol-3-yl)methyl)-1-oxo-2,8-diazaspiro[4.5]decan-8-yl)isonicotinonitrile] | 27 | 496 |  | 
COc1cccc(N2CCC3(CCN(Cc4c[nH]c5ccccc45)C3=O)CC2)n1 [Example 3.4, 2-((1H-Indol-3-yl)methyl)-8-(6-methoxypyridin-2-yl)-2,8-diazaspiro[4.5]decan-1-one] |  | 287 |  | 3770
Cc1ccnc(N2CCC3(CCN(Cc4c[nH]c5ccccc45)C3=O)CC2)n1 [Example 3.5, 2-((1H-Indol-3-yl)methyl)-8-(4-methylpyrimidin-2-yl)-2,8-diazaspiro[4.5]decan-1-one] | 25 | 296 |  | 
O=C1N(Cc2ccccc2-c2ccccc2)CCC12CCN(c1cnc3ccccc3n1)CC2 [Example 3.6, 2-(biphenyl-2-ylmethyl)-8-(quinoxalin-2-yl)-2,8-diazaspiro[4.5]decan-1-one] |  | 784 |  | 1630
Cn1c(N2CCC3(CCN(Cc4ccccc4-c4ccccc4)C3=O)CC2)nc2ccccc21 [Example 3.8, 2-(Biphenyl-2-ylmethyl)-8-(1-methyl-1H-benzo[d]imidazol-2-yl)-2,8-diazaspiro[4.5]decan-1-one] |  | 644 |  | 506
O=C1N(Cc2ccccc2-c2ccccc2)CCC12CCN(c1nc3ccccc3[nH]1)CC2 [Example 3.9, 8-(1H-Benzo[d]imidazol-2-yl)-2-(biphenyl-2-ylmethyl)-2,8-diazaspiro[4.5]decan-1-one] |  | 731 |  | 343
